“And” between values parts separate entries of the source, which are not always exact repeats. Equal values may be shown once. Toxic doses and inconclusive results are not listed.
Test system: L1210 leukemia ip in BDF1 mice, survival T/C
Assay: NCI In Vivo Anticancer Drug Screen. Data for tumor model L1210 Leukemia (intraperitoneal) in B6D2F1 (BDF1) mice
Settings: endpoint: mean survival time, higher = longer survival
How it was run: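 Each compound was tested against a transplantable tumor grown in mice. The endpoint was survival, with treated animals benchmarked against vehicle controls as a simple ratio.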

[1] = dose: 100.0 mg/kg/injection, schedule: Q04DX003 (ip), vehicle: saline
[2] = dose: 25.0 mg/kg/injection, schedule: Q01DX009 (ip), vehicle: saline
[3] = dose: 50.0 mg/kg/injection, schedule: Q01DX009 (ip), vehicle: saline
[4] = dose: 200.0 mg/kg/injection, schedule: Q01DX001 (ip), vehicle: saline
[5] = dose: 400.0 mg/kg/injection, schedule: Q01DX001 (ip), vehicle: saline
[6] = dose: 100.0 mg/kg/injection, schedule: Q04DX002 (ip), vehicle: Klucel (hydroxypropylcellulose) (HPC)
[7] = dose: 200.0 mg/kg/injection, schedule: Q04DX002 (ip), vehicle: Klucel (hydroxypropylcellulose) (HPC)

In the case of `Cc1ccc([I+]c2ccc(C)cc2C)c(C)c1`, the T/C (dose: 0.25 mg/kg/injection, schedule: Q01DX015 (ip), vehicle: saline) is reported as 96 % of control, the T/C (dose: 0.5 mg/kg/injection, schedule: Q01DX015 (ip), vehicle: saline) is reported as 96 % of control and the T/C (dose: 1.0 mg/kg/injection, schedule: Q01DX015 (ip), vehicle: saline) is reported as 97 % of control. The T/C (dose: 1.56 mg/kg/injection, schedule: Q01DX009 (ip), vehicle: saline with Tween-80) was 112 % of control, the T/C (dose: 1.56 mg/kg/injection, schedule: Q04DX003 (ip), vehicle: saline) was 95 % of control and the T/C (dose: 2.0 mg/kg/injection, schedule: Q01DX015 (ip), vehicle: saline) was 97 % of control. The T/C (dose: 3.12 mg/kg/injection, schedule: Q01DX009 (ip), vehicle: saline with Tween-80) was 119 % of control, the T/C (dose: 3.12 mg/kg/injection, schedule: Q04DX003 (ip), vehicle: saline) was 91 % of control and the T/C (dose: 6.25 mg/kg/injection, schedule: Q01DX009 (ip), vehicle: saline with Tween-80) was 110 % of control. The T/C (dose: 6.25 mg/kg/injection, schedule: Q04DX003 (ip), vehicle: saline) was 95 % of control, the T/C (dose: 12.5 mg/kg/injection, schedule: Q01DX001 (ip), vehicle: saline) was 94 % of control and the T/C (dose: 25.0 mg/kg/injection, schedule: Q01DX001 (ip), vehicle: saline) was 100 % of control.
In the case of `CC(C)CC(CC(C)C)C(=O)C1C2CCC(O2)C1C(=O)C(CC(C)C)CC(C)C` (stereo not given), the T/C (dose: 6.25 mg/kg/injection, schedule: Q04DX002 (ip), vehicle: saline with Tween-80) is reported as 94 % of control, the T/C (dose: 12.5 mg/kg/injection, schedule: Q04DX002 (ip), vehicle: saline with Tween-80) is reported as 94 % of control and the T/C (dose: 25.0 mg/kg/injection, schedule: Q04DX002 (ip), vehicle: saline with Tween-80) is reported as 86 % of control.
With `Cc1c(O)c2cccc(-c3ccccc3)c2oc1=O` the T/C [1] was 87 % of control, the T/C (dose: 200.0 mg/kg/injection, schedule: Q04DX003 (ip), vehicle: saline) was 91 % of control and the T/C (dose: 400.0 mg/kg/injection, schedule: Q04DX003 (ip), vehicle: saline) was 109 % of control.
In the case of `O=C(Cl)c1c(Cl)c(Cl)c(C(=O)Cl)c(Cl)c1Cl`, the T/C [2] is reported as 90 % of control, the T/C [3] is reported as 97 % of control and the T/C (dose: 100.0 mg/kg/injection, schedule: Q01DX001 (ip), vehicle: saline) is reported as 98 % of control. The T/C [1] was 100 % of control, the T/C [4] was 98 % of control and the T/C [5] was 104 % of control.
For `CSc1ncc(Br)c(Sc2nc(N)nc3nc[nH]c23)n1`, the T/C (dose: 0.25 mg/kg/injection, schedule: Q01DX Z (ip), vehicle: other) was 107 % of control, the T/C (dose: 0.5 mg/kg/injection, schedule: Q01DX Z (ip), vehicle: other) was 103 % of control and the T/C (dose: 1.0 mg/kg/injection, schedule: Q01DX Z (ip), vehicle: methylcellulose (MC)) was 98 % of control. For the same compound, the T/C (dose: 1.0 mg/kg/injection, schedule: Q01DX Z (ip), vehicle: other) was 103 % of control, the T/C (dose: 3.0 mg/kg/injection, schedule: Q01DX Z (ip), vehicle: carboxymethylcellulose (CMC)) was 121 % of control and the T/C (dose: 3.0 mg/kg/injection, schedule: Q01DX Z (ip), vehicle: methylcellulose (MC)) was 97 % of control. For the same compound, the T/C (dose: 6.0 mg/kg/injection, schedule: Q01DX Z (ip), vehicle: methylcellulose (MC)) was 107 % of control, the T/C (dose: 10.0 mg/kg/injection, schedule: Q01DX001 (ip), vehicle: saline with Tween-80) was 156 % of control and the T/C (dose: 12.0 mg/kg/injection, schedule: Q01DX001 (ip), vehicle: saline with Tween-80) was 190 % of control. The T/C (dose: 12.0 mg/kg/injection, schedule: Q01DX Z (ip), vehicle: carboxymethylcellulose (CMC)) was 158 % of control, the T/C (dose: 14.0 mg/kg/injection, schedule: Q01DX001 (ip), vehicle: saline with Tween-80) was 200 % of control and the T/C (dose: 19.0 mg/kg/injection, schedule: Q01DX001 (ip), vehicle: saline with Tween-80) was 162 % of control. For the same compound, the T/C (dose: 29.0 mg/kg/injection, schedule: Q01DX001 (ip), vehicle: saline) was 244 % of control, the T/C (dose: 30.0 mg/kg/injection, schedule: Q01DX001 (ip), vehicle: saline with Tween-80) was 162 % of control and the T/C (dose: 32.0 mg/kg/injection, schedule: Q01DX Z (ip), vehicle: other) was 96 % of control. For the same compound, the T/C (dose: 33.5 mg/kg/injection, schedule: Q01DX Z (ip), vehicle: carboxymethylcellulose (CMC)) was 107 % of control, the T/C (dose: 44.0 mg/kg/injection, schedule: Q01DX001 (ip), vehicle: saline with Tween-80) was 164 % of control and the T/C (dose: 45.0 mg/kg/injection, schedule: Q01DX001 (ip), vehicle: saline) was 236 % of control. For the same compound, the T/C (dose: 48.0 mg/kg/injection, schedule: Q01DX Z (ip), vehicle: carboxymethylcellulose (CMC)) was 103 % of control, the T/C (dose: 50.0 mg/kg/injection, schedule: Q01DX001 (ip), vehicle: carboxymethylcellulose (CMC)) was 158 % of control and the T/C (dose: 66.0 mg/kg/injection, schedule: Q01DX001 (ip), vehicle: saline) was 101 % of control. The T/C (dose: 100.0 mg/kg/injection, schedule: Q01DX001 (ip), vehicle: saline with Tween-80) was 104 % of control, the T/C (dose: 100.0 mg/kg/injection, schedule: Q01DX Z (ip), vehicle: methylcellulose (MC)) was 91 % of control and the T/C (dose: 150.0 mg/kg/injection, schedule: Q01DX001 (ip), vehicle: saline with Tween-80) was 120 % of control. The T/C (dose: 150.0 mg/kg/injection, schedule: Q01DX001 (ip), vehicle: saline) was 105 % of control, the T/C (dose: 200.0 mg/kg/injection, schedule: Q01DX001 (ip), vehicle: carboxymethylcellulose (CMC)) was 103 % of control and the T/C [4] was 122 % of control. For the same compound, the T/C (dose: 400.0 mg/kg/injection, schedule: Q01DX001 (ip), vehicle: carboxymethylcellulose (CMC)) was 94 % of control and the T/C [5] was 99 % of control.
In the case of `O=C(O)C(O)CBr` (stereo not given), the T/C (dose: 12.5 mg/kg/injection, schedule: Q01DX009 (ip), vehicle: saline with Tween-80) is reported as 103 % of control, the T/C (dose: 25.0 mg/kg/injection, schedule: Q01DX009 (ip), vehicle: saline with Tween-80) is reported as 95 % of control and the T/C (dose: 50.0 mg/kg/injection, schedule: Q01DX009 (ip), vehicle: saline with Tween-80) is reported as 98 % of control.
In the case of `O=C(NCCO)Nc1cccc(Cl)c1`, the T/C (dose: 100.0 mg/kg/injection, schedule: Q04DX002 (ip), vehicle: saline) is reported as 100 % of control, the T/C (dose: 200.0 mg/kg/injection, schedule: Q04DX002 (ip), vehicle: saline) is reported as 100 % of control and the T/C (dose: 400.0 mg/kg/injection, schedule: Q04DX002 (ip), vehicle: saline) is reported as 111 % of control.
For `CC(Cl)C(=O)NC(C)C(=O)O` (stereo not given), the T/C (dose: 12.5 mg/kg/injection, schedule: Q04DX002 (ip), vehicle: saline) was 97 % of control, the T/C (dose: 25.0 mg/kg/injection, schedule: Q04DX002 (ip), vehicle: saline) was 111 % of control and the T/C (dose: 50.0 mg/kg/injection, schedule: Q04DX002 (ip), vehicle: saline) was 97 % of control.
With `CCC1=[N+](C)C(C)(C)CC(C)O1` (stereo not given) the T/C (dose: 6.25 mg/kg/injection, schedule: Q01DX009 (ip), vehicle: saline) was 102 % of control, the T/C (dose: 6.25 mg/kg/injection, schedule: Q04DX003 (ip), vehicle: saline with Tween-80) was 98 % of control and the T/C (dose: 12.5 mg/kg/injection, schedule: Q01DX009 (ip), vehicle: saline) was 102 % of control. For the same compound, the T/C (dose: 12.5 mg/kg/injection, schedule: Q04DX003 (ip), vehicle: saline with Tween-80) was 94 % of control, the T/C [2] was 107 % of control and the T/C (dose: 25.0 mg/kg/injection, schedule: Q04DX003 (ip), vehicle: saline with Tween-80) was 94 % of control. The T/C [3] was 102 % of control and the T/C (dose: 50.0 mg/kg/injection, schedule: Q04DX003 (ip), vehicle: saline with Tween-80) was 94 % of control and 95 % of control.
For `O=S(=O)(O)c1ccc(CCCCCCCCl)cc1`, the T/C [6] was 100 % of control and the T/C [7] was 90 % of control.
With `CC(=O)NC(C)(C)C#N` the T/C [6] was 93 % of control, the T/C [7] was 96 % of control and the T/C (dose: 400.0 mg/kg/injection, schedule: Q04DX002 (ip), vehicle: Klucel (hydroxypropylcellulose) (HPC)) was 107 % of control.

Reference: PubChem BioAssay AID248 (DTP/NCI, 2004)
